The species named for one data set is Sus scrofa. Nature of the data set: Inhibition of porcine pancreatic lipase type 2 assessed as residual enzyme activity using tributyrin as substrate preincubated for 30 mins followed by substrate addition measured for 5 mins.
In data set [1] the target is T1, Pancreatic triacylglycerol lipase (Sus scrofa, UniProt P00591).
T1 sequence (P00591 whole entry): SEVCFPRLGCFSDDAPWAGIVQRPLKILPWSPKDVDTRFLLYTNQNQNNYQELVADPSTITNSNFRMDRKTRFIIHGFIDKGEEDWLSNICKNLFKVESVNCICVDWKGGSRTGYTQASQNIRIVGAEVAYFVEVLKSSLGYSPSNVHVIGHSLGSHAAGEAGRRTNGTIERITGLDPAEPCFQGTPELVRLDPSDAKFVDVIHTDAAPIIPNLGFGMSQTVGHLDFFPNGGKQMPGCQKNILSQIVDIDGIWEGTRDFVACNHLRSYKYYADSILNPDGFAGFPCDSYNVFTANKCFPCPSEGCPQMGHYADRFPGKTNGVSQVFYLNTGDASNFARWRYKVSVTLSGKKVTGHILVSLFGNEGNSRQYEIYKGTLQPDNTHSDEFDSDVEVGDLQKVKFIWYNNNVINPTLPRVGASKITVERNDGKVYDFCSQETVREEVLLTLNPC
The data set can be described thus: Inhibition of porcine pancreatic lipase using p-nitrophenyl butyrate as substrate preincubated for 5 mins followed by substrate addition measured after 5 mins by spectrophotometric analysis.

The target of data set [2] is T1, Pancreatic triacylglycerol lipase. The data set can be described thus: Binding affinity to porcine pancreatic lipase using p-nitrophenyl butyrate as substrate by dixon plot analysis.
Compound in data set [3]: O=C1S/C(=C\c2cn(-c3ccccc3)nc2-c2ccc(Cl)cc2)C(=O)N1Cc1ccc([N+](=O)[O-])cc1
The data set can be described thus: Reversible competitive inhibition of porcine pancreatic lipase assessed as Vmax for substrate at 10 uM in presence of varying levels of p-nitophenyl butyrate by double reciprocal Lineweaver-burk plot analysis (reference value: 0.0545 microM/min). The note with it: Sus scrofa.

Compound in data set [4]: O=C1S/C(=C\c2cn(-c3ccccc3)nc2-c2ccc(Cl)cc2)C(=O)N1Cc1ccc([N+](=O)[O-])cc1
The data set can be described thus: Reversible competitive inhibition of porcine pancreatic lipase assessed as Vmax for substrate at 5 uM in presence of varying levels of p-nitophenyl butyrate by double reciprocal Lineweaver-burk plot analysis (reference value: 0.0545 microM/min). The conditions noted are these: Sus scrofa.

Compound in data set [5]: O=C1S/C(=C\c2cn(-c3ccccc3)nc2-c2ccc(Cl)cc2)C(=O)N1Cc1ccc([N+](=O)[O-])cc1
Nature of the data set: Reversible competitive inhibition of porcine pancreatic lipase assessed as Vmax for substrate at 2.5 uM in presence of varying levels of p-nitophenyl butyrate by double reciprocal Lineweaver-burk plot analysis (reference value: 0.0545 microM/min). The note with it: Sus scrofa.

Compound in data set [6]: O=C1S/C(=C\c2cn(-c3ccccc3)nc2-c2ccc(Cl)cc2)C(=O)N1Cc1ccc([N+](=O)[O-])cc1
Nature of the data set: Reversible competitive inhibition of porcine pancreatic lipase assessed as Km for substrate at 5 uM in presence of varying levels of p-nitophenyl butyrate by double reciprocal Lineweaver-burk plot analysis (reference value: 69.32 microM). The conditions noted are these: Sus scrofa.

Compound in data set [7]: O=C1S/C(=C\c2cn(-c3ccccc3)nc2-c2ccc(Cl)cc2)C(=O)N1Cc1ccc([N+](=O)[O-])cc1
The data set can be described thus: Reversible competitive inhibition of porcine pancreatic lipase assessed as Km for substrate at 10 uM in presence of varying levels of p-nitophenyl butyrate by double reciprocal Lineweaver-burk plot analysis (reference value: 69.32 microM). The conditions noted are these: Sus scrofa.

Compound in data set [8]: O=C1S/C(=C\c2cn(-c3ccccc3)nc2-c2ccc(Cl)cc2)C(=O)N1Cc1ccc([N+](=O)[O-])cc1
Nature of the data set: Reversible competitive inhibition of porcine pancreatic lipase assessed as Km for substrate at 2.5 uM in presence of varying levels of p-nitophenyl butyrate by double reciprocal Lineweaver-burk plot analysis (reference value: 69.32 microM). The conditions noted are these: Sus scrofa.

A word on the IC50: it is the concentration that inhibits the measured activity by half. Read a high IC50 as weaker potency in that assay. A word on the Ki: it is the equilibrium dissociation constant of an inhibitor or competing ligand from its target. A high value points to lower affinity. By Vmax is commonly meant the rate approached at saturating substrate. By Km is commonly meant the concentration of substrate that gives half-maximal velocity.

On to `Cc1ccc(-c2nn(-c3ccccc3)cc2/C=C2\SC(=O)N(Cc3ccc([N+](=O)[O-])cc3)C2=O)cc1`, for which, in the data set listed under Sus scrofa, the XI50 is 19.3. In addition, the IC50 in data set [1] is 9.87 µM.
Regarding `O=C1S/C(=C\c2cn(-c3ccccc3)nc2-c2ccc([N+](=O)[O-])cc2)C(=O)N1Cc1ccc([N+](=O)[O-])cc1`, in the data set listed under Sus scrofa, the XI50 is 18.7. Further, in [1], the IC50 came out at 8.44 µM.
The corresponding values for `O=C1NC(=O)/C(=C/c2cn(-c3ccccc3)nc2-c2ccccc2)S1` are 65.1 and 18.8 µM.
For the molecule `CCCCCCCCCCC[C@@H](C[C@@H]1OC(=O)[C@H]1CCCCCC)OC(=O)[C@H](CC(C)C)NC=O`, in the data set filed under Sus scrofa, the XI50 turned out to be 3.72.
Take `O=C1NC(=O)/C(=C/c2cn(-c3ccccc3)nc2-c2ccc([N+](=O)[O-])cc2)S1`: in the data set filed under Sus scrofa, the XI50 was determined as 39.5. The same molecule had an IC50 in data set [1] of 17.3 µM.
The corresponding values for `COc1ccc(-c2nn(-c3ccccc3)cc2/C=C2\SC(=O)NC2=O)cc1` are 24.4 and 13 µM.
For the molecule `O=C1S/C(=C\c2cn(-c3ccccc3)nc2-c2ccc(Cl)cc2)C(=O)N1Cc1ccc([N+](=O)[O-])cc1`, the Ki in data set [2] turned out to be 14.4 µM. Also, in the data set listed under Sus scrofa, the XI50 was determined as 10. This molecule yielded a half-maximal inhibitory concentration (IC50) in data set [1] of 4.81 µM.
Regarding `O=C1S/C(=C\c2cn(-c3ccccc3)nc2-c2ccc(F)cc2)C(=O)N1Cc1ccc([N+](=O)[O-])cc1`, in the data set filed under Sus scrofa, the XI50 was 13. The molecule also returned an IC50 in [1] of 5.42 µM.
The corresponding values for `O=C1S/C(=C\c2cn(-c3ccccc3)nc2-c2ccccc2)C(=O)N1Cc1ccc([N+](=O)[O-])cc1` are 21.8 and 12.5 µM.
For `COc1ccc(-c2nn(-c3ccccc3)cc2/C=C2\SC(=O)N(Cc3ccc([N+](=O)[O-])cc3)C2=O)cc1` the same measures were 18.1 and 9.4 µM.
As for `O=C1NC(=O)/C(=C/c2cn(-c3ccccc3)nc2-c2ccc(F)cc2)S1`, the XI50 in the data set filed under Sus scrofa came out at 25.4. The same molecule showed an IC50 in [1] of 12.9 µM.
On to `O=C1NC(=O)/C(=C/c2cn(-c3ccccc3)nc2-c2ccc(Cl)cc2)S1`, for which the XI50 in the data set filed under Sus scrofa stood at 19.3. This molecule also had an IC50 in [1] of 10.3 µM.
Regarding `Cc1ccc(-c2nn(-c3ccccc3)cc2/C=C2\SC(=O)NC2=O)cc1`, in the data set listed under Sus scrofa, the XI50 was 27.2. In [1], the IC50 is 15.1 µM.

B1: Pancreatic triacylglycerol lipase (Sus scrofa), P00591 (protein)
chain: SEVCFPRLGCFSDDAPWAGIVQRPLKILPWSPKDVDTRFLLYTNQNQNNYQELVADPSTITNSNFRMDRKTRFIIHGFIDKGEEDWLSNICKNLFKVESVNCICVDWKGGSRTGYTQASQNIRIVGAEVAYFVEVLKSSLGYSPSNVHVIGHSLGSHAAGEAGRRTNGTIERITGLDPAEPCFQGTPELVRLDPSDAKFVDVIHTDAAPIIPNLGFGMSQTVGHLDFFPNGGKQMPGCQKNILSQIVDIDGIWEGTRDFVACNHLRSYKYYADSILNPDGFAGFPCDSYNVFTANKCFPCPSEGCPQMGHYADRFPGKTNGVSQVFYLNTGDASNFARWRYKVSVTLSGKKVTGHILVSLFGNEGNSRQYEIYKGTLQPDNTHSDEFDSDVEVGDLQKVKFIWYNNNVINPTLPRVGASKITVERNDGKVYDFCSQETVREEVLLTLNPC
On to B1, for which the Vmax in data set [3] is 0.0566 µM/min; in [4], 0.0557 µM/min; in data set [5], 0.0565 µM/min. The Km stood at 145 µM in data set [6], 165 µM in data set [7] and 125 µM in data set [8].

These data come from ChEMBL document CHEMBL4052758, “Design, synthesis, biological evaluation and molecular modelling studies of novel diaryl substituted pyrazolyl thiazolidinediones as potent pancreatic lipase inhibitors” (Bioorg Med Chem Lett, 2017).
